Measurements taken from publication PMC7160673, “A Degenerate Peptide Library Approach to Reveal Sequence Determinants of Methyllysine-Driven Protein Interactions” (Frontiers in Cell and Developmental Biology, 2020).
Where no end group is shown, it is not given here. Me2a = asymmetric dimethyl on Arg; Peg = not defined here

What was measured:
Assay type in all cases: binding
[1] = test system: Abcam #ab8895, anti-H3K4me1; assay: Histone peptide microarray, Abcam ab8895; details: Abcam ab8895 (anti-H3K4me1) hits, average signal per peptide
[2] = test system: Millipore #07-449, anti-H3K27me3; assay: Histone peptide microarray, Millipore 07-449; details: Millipore 07-449 (anti-H3K27me3) hits, average signal per peptide
[3] = test system: Active Motif #39161, anti-H3K9me3; assay: Histone peptide microarray, Active Motif 39161; details: Active Motif 39161 (anti-H3K9me3) hits
53BP1 TTD = assay: Histone peptide microarray, 53BP1 TTD; details: 53BP1 TTD hits, average signal per peptide
Summary of the method: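 Printed histone peptide arrays; hybridization buffer 25 mM HEPES pH 7.5 / 100 mM NaCl / 0.5% BSA / 0.1% NP-40. Washes PBS + 0.1% Tween-20, 3 × 5 min per step. Detection: anti-GST 1:2,000 → AlexaFluor 647 secondary 1:5,000.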

CST 9733 (anti-H3K27me3) = assay: Histone peptide microarray, CST 9733; details: histone peptide array signal normalized to the highest peptide average per subarray, hits; CST 9733 LOT:14 dilution 1:5,000
Protocol: (§1) Peptide microarrays were fabricated using an Aushon 2470 microarrayer and used as described ([Cornett et al., 2017]) with the following modifications. Protein and antibody hybridization steps were performed in buffer containing 25 mM HEPES pH 7.5, 100 mM NaCl, 0.5% BSA (w/v), and 0.1% NP-40. Slides were washed 3 × 5 min in PBS supplemented with 0.1% Tween-20 between each hybridization step. Antibodies used were primary anti-GST (Sigma #7781, 1:2,000 dilution) and an AlexaFluor 647-labeled secondary antibody (Life Technologies A-21245, 1:5,000 dilution). […] Full lists of peptides queried by array analysis are in Supplementary Table S2.

[4] = test system: ABClonal #A2355, anti-H3K4me1; assay: Histone peptide microarray, ABclonal A2355; details: Abclonal A2355 (anti-H3K4me1) hits
Protocol: as §1

Substance | Avg Signal [1] | Avg Signal [2] | Avg Signal [3] | Avg Signal (53BP1 TTD) | Avg Signal (CST 9733 (anti-H3K27me3)) | Avg Signal [4]
AR(Me2a)TK(Me3)QTARKpSTGGKAPRKQL-K(Biot)-NH2 [H3.1R2me2aK4me3S10p] | 0.0003692 | 0.02048 | 0.007954 | 0.1482 | 0.01157 | 
AR(Me2a)pTK(Me3)QTARK(Ac)STGGK(Ac)APRK(Ac)QL-K(Biot)-NH2 [H3.1R2me2aT3pK4me3K9acK14acK18ac] | 0.003812 | 0.005728 | 0.0001961 | 0.09934 | 0.0005148 | 
AR(Me)TK(Me3)QTARK(Ac)STGGK(Ac)APRK(Ac)QL-K(Biot)-NH2 [H3.1R2me1K4me3K9acK14acK18ac] | 0.01244 | 0.05381 | 0.006911 | 0.04917 | 0.009005 | 
ARTK(Me3)QTARKSTGGK(Ac)APRKQL-K(Biot)-NH2 [H3.1K4me3K14ac] | 0.0003256 | 0.02658 | 0.009793 | 0.1175 | 0.004624 | 
ARTKQTAR(Me2a)KSTGGKAPRKQL-Peg-Biot (chain 2 KSTGGKAPRKQL-{Peg-Biot}; not fully specified; reading uncertain) [Peptide H3.1R8me2a] | 0.06138 |  | 0.01209 |  |  | 0.000963
ARTKQTARK(Me2)STGGKAPRKQLATKAARK(Me)SAPAT-Peg-Biot [H3.1K9me2K27me1] | 0.3474 | 0.004141 | 0.02404 |  |  | 0.05183
ATKAARKSAPATGGVK(Ac)KPHRYRPG-GK(Biotin)-OH [Peptide H3.1K36ac] |  | 0.004604 | 0.009457 |  |  | 0.001664
ATKAARKSAPATGGVK(Me2)KPHRYRPG-GK(Biotin)-OH [Peptide H3.1K36me2] | 0.1144 | 0.005826 | 0.01273 |  |  | 0.06205
ATKAARKSAPATGGVK(Me)KPHRYRPG-GK(Biotin)-OH [Peptide H3.1K36me1] | 0.0206 | 0.002073 | 0.001641 |  |  | 0.006039
Ac-APRK(Ac)QLATK(Ac)AARK(Ac)pSAPSTGG-Peg-Biot [H3.3K18acK23acK27acS28p] |  | 0.0009622 | 0.004946 |  |  | 0.0001631
Ac-APRK(Me3)QLATKAARKSAPSTGGVK(Me3)KPHRY-GG-K(Biot)-NH2 [H3.3K18me3K36me3] | 0.006536 | 0.2482 | 0.4275 | 0.1772 | 0.04154 | 
Ac-APRKQLATK(Me)AARKSAPATGG-Peg-K(Biot)-NH2 [Peptide H3.1K23me1] | 0.124 | 0.003618 | 0.004448 |  |  | 0.3577
Ac-SGRGK(Ac)GGK(Me)GLGK(Ac)GGAKRHRKVLR-Peg-Biot [H4K5acK8me1K12ac] | 0.003463 | 0.005126 | 0.01545 |  |  | 0.01786
Ac-SGRGK(Ac)GGKGLGKGGAKRHRK(Ac)VLR-Peg-Biot [Peptide H4K5acK20ac] |  |  | 0.0005946 |  |  | 0.0007556
Ac-SGRGKGGK(Me)GLGKGGAKRHRKVLR-Peg-Biot [Peptide H4K8me1] | 0.01379 |  | 0.0007159 |  |  | 0.02626
Biot-Peg-GKKATQApSQEY-OH [Peptide H2A.XS139p] | 0.05956 | 0.0003137 |  |  |  | 0.02695
H3.1.1(1-32) | 0.3398 | 0.003069 |  |  |  | 0.04529
PEPAKSAPAPKK(Ac)GSK(Ac)K(Ac)AVTK(Ac)AQKK-Peg-Biot [H2BK12acK15acK16acK20ac] |  |  | 0.009853 |  |  | 0.0003507
